Among the test systems are BT-549; UACC-62; 786-0; NCI-H226; CCRF-CEM; HL-60; SK-MEL-5; IGROV-1; SW-620; SNB-75; K562; COLO 205; SF-295; LOX IMVI; UO-31; T47D; A498; SK-MEL-2; HOP-92; SF-268.
Experiment in all cases: DTP human tumour cell line panel, 48 h

Each structure is given as a SMILES string.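 Cells were grown in 96-well plates and exposed to each compound for 48 hours at five concentrations; endpoints were interpolated linearly between bracketing concentrations, or set to the highest concentration if not reached. Abbreviation: GI50, concentration required for 50% inhibition of growth.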 Calls of active or inactive are those of the source. Cut-off read from the data, not from the text of the source: active = GI50 up to about 1.1 µM and inactive = higher.

Turning to `CCOC(=O)CC1C(C(=O)OCC)=Cn2c([nH]c3cccc4cccc2c43)=C1C(=O)OCC` (stereo not drawn), the GI50 in the assay with BT-549 is > 100 µM (inactive); in the assay with UACC-62 it was > 100 µM (inactive); in the assay on 786-0, > 100 µM (inactive); in the assay with NCI-H226, > 100 µM (inactive); in the assay with CCRF-CEM it was > 100 µM (inactive); in the assay on HL-60 it was 25.3 µM (inactive). Moreover, the GI50 in the assay on SK-MEL-5 is 33.7 µM (inactive); with IGROV-1, > 100 µM (inactive); in the assay with SW-620, > 100 µM (inactive); in the assay on SNB-75, > 100 µM (inactive); in the assay on K562, > 100 µM (inactive); in the assay on COLO 205, > 100 µM (inactive). Besides, the GI50 in the assay on SF-295 was > 100 µM (inactive); in the assay on LOX IMVI, > 100 µM (inactive); in the assay with UO-31, > 100 µM (inactive); with T47D, 43.8 µM (inactive); with A498 it was > 100 µM (inactive); in the assay with SK-MEL-2 it was > 100 µM (inactive). Further, the GI50 in the assay on HOP-92 was > 100 µM (inactive).

In the case of `COc1ccccc1NC(=O)CC(=O)NN`, the GI50 in the assay with BT-549, in the assay on UACC-62, with 786-0, in the assay with NCI-H226, in the assay with CCRF-CEM and in the assay with HL-60 was > 100 µM (inactive) each time. Besides, the GI50 in the assay with SF-268, in the assay with SK-MEL-5, with IGROV-1, in the assay with SW-620, in the assay on SNB-75 and in the assay on K562 was > 100 µM (inactive) in each case. Moreover, the GI50 in the assay on COLO 205, with SF-295, in the assay with LOX IMVI, in the assay with UO-31, in the assay on T47D and in the assay with A498 was > 100 µM (inactive) in each case. Moreover, the GI50 with SK-MEL-2 and in the assay with HOP-92 was > 100 µM (inactive) throughout.

As to `COC(=O)C1SC(N(C)c2ccccc2)=NC12c1ccccc1Nc1ccccc12` (stereo not drawn), the GI50 with BT-549 was 15.9 µM (inactive); with UACC-62 it was 13.6 µM (inactive); with 786-0 it was 26.1 µM (inactive); with NCI-H226 it was 20.7 µM (inactive); in the assay with CCRF-CEM, 6.71 µM (inactive); in the assay on HL-60, 12.7 µM (inactive). Further, the GI50 in the assay with SF-268 was 21 µM (inactive); in the assay on SK-MEL-5, 12.9 µM (inactive); in the assay with IGROV-1, 14.2 µM (inactive); with SW-620, 27.9 µM (inactive); in the assay with SNB-75, 25.8 µM (inactive); with K562 it was 15.1 µM (inactive). Moreover, the GI50 with COLO 205 was 14.5 µM (inactive); in the assay on SF-295, 17.2 µM (inactive); in the assay on LOX IMVI, 19.1 µM (inactive); with UO-31, 22.5 µM (inactive); in the assay with T47D it was 15.7 µM (inactive); in the assay with A498 it was 20.7 µM (inactive). Also, the values for the GI50 with SK-MEL-2 and in the assay on HOP-92 were 15.5 µM (inactive) and 14.1 µM (inactive), respectively.

For `CCCCCc1cc(CCCC)sc1-c1ccco1`, the GI50 was > 100 µM (inactive) in the assay on BT-549; > 100 µM (inactive) in the assay with UACC-62; > 100 µM (inactive) in the assay with 786-0; > 100 µM (inactive) in the assay with NCI-H226; 30.5 µM (inactive) in the assay with CCRF-CEM; 21.7 µM (inactive) in the assay on HL-60. Also, the GI50 with SF-268 is > 100 µM (inactive); with SK-MEL-5, > 100 µM (inactive); in the assay on IGROV-1, > 100 µM (inactive); in the assay with SW-620, > 100 µM (inactive); in the assay with SNB-75 it was > 100 µM (inactive); with K562, > 58.2 µM (inactive). Moreover, the GI50 in the assay with COLO 205 is > 100 µM (inactive); with SF-295, > 85.5 µM (inactive); with LOX IMVI, 49.9 µM (inactive); in the assay with UO-31, > 100 µM (inactive); with T47D, > 91.2 µM (inactive); in the assay on A498, > 100 µM (inactive). Further, the GI50 in the assay on SK-MEL-2 is > 83.9 µM (inactive); with HOP-92, > 100 µM (inactive).

`Cn1c(=O)c2c(nc3n(C)c(=O)c4ccccc4n23)n(C)c1=O`: the GI50 was > 80.4 µM (inactive) in the assay on BT-549; 28.9 µM (inactive) with UACC-62; 29.6 µM (inactive) in the assay on 786-0; 30 µM (inactive) in the assay with NCI-H226; 13.5 µM (inactive) in the assay on CCRF-CEM; 24 µM (inactive) with HL-60. In addition, the GI50 in the assay on SF-268 is 68.5 µM (inactive); with SK-MEL-5, 27.8 µM (inactive); in the assay on IGROV-1 it was > 95.9 µM (inactive); in the assay with SW-620, 42.2 µM (inactive); in the assay with SNB-75 it was 40.1 µM (inactive); with K562, > 67 µM (inactive). The GI50 with COLO 205 was > 93.5 µM (inactive); in the assay with SF-295, 22.4 µM (inactive); in the assay on LOX IMVI, 38.7 µM (inactive); in the assay with UO-31, 39.1 µM (inactive); with T47D, > 71 µM (inactive); in the assay on A498, 18.9 µM (inactive). Also, the GI50 was > 100 µM (inactive) in the assay on SK-MEL-2 and 43.6 µM (inactive) in the assay with HOP-92.

For `O=C(c1c(F)c(F)c(F)c(F)c1F)N1CCN(C(=O)c2c(F)c(F)c(F)c(F)c2F)C1=S`, the GI50 was 13.6 µM (inactive) in the assay with BT-549; 4.5 µM (inactive) in the assay with UACC-62; 13.2 µM (inactive) with 786-0; 15.4 µM (inactive) in the assay on NCI-H226; 2.79 µM (inactive) in the assay with CCRF-CEM; 1.07 µM (active) in the assay on HL-60. Moreover, the GI50 is 11.3 µM (inactive) with SF-268; 6.9 µM (inactive) in the assay with SK-MEL-5; 4.4 µM (inactive) in the assay on IGROV-1; 1.84 µM (inactive) in the assay with SW-620; 11 µM (inactive) in the assay with SNB-75; 1.96 µM (inactive) in the assay with K562. Also, the GI50 in the assay with COLO 205 is 7.01 µM (inactive); in the assay on SF-295, 15.1 µM (inactive); with LOX IMVI it was 2.51 µM (inactive); in the assay on UO-31 it was 5.55 µM (inactive); with T47D it was 6.46 µM (inactive); with A498, 18.1 µM (inactive). For the same compound, the GI50 in the assay with SK-MEL-2 is 2.11 µM (inactive); in the assay on HOP-92 it was 3.89 µM (inactive).

As to `CC(C)NC(NC(C)C)=C(S(=O)(=O)C(F)(F)C(F)(F)C(F)(F)C(F)(F)F)S(=O)(=O)C(F)(F)C(F)(F)C(F)(F)C(F)(F)F`, the GI50 in the assay with BT-549 is 90.8 µM (inactive); in the assay with UACC-62, > 100 µM (inactive); in the assay with 786-0, > 100 µM (inactive); in the assay on NCI-H226, > 100 µM (inactive); with CCRF-CEM, > 100 µM (inactive); in the assay on HL-60, > 100 µM (inactive). The GI50 in the assay on SF-268, with SK-MEL-5, in the assay with IGROV-1, with SW-620, in the assay on SNB-75 and in the assay on K562 was > 100 µM (inactive) throughout. Besides, the GI50 in the assay with COLO 205, in the assay with SF-295, with LOX IMVI, in the assay with UO-31, with T47D and with A498 was > 100 µM (inactive) in each case. For the same compound, the GI50 in the assay with SK-MEL-2 and in the assay on HOP-92 was > 100 µM (inactive) in each case.

For `O=C1C=CC(=O)c2c1ccc1c3ccccc3n(-c3ccccc3)c21`, the GI50 in the assay with BT-549 was 13.5 µM (inactive); with UACC-62, 13 µM (inactive); with 786-0, 4.86 µM (inactive); in the assay with NCI-H226 it was 18.3 µM (inactive); with CCRF-CEM it was 0.304 µM (active); in the assay on HL-60, 0.501 µM (active). The GI50 in the assay with SF-268 was 17.4 µM (inactive); with SK-MEL-5, 16.7 µM (inactive); in the assay with IGROV-1, 18.3 µM (inactive); in the assay with SW-620, 2.29 µM (inactive); in the assay on SNB-75, 18.9 µM (inactive); in the assay on K562 it was 0.986 µM (active). The GI50 is 4.56 µM (inactive) with COLO 205; 14.6 µM (inactive) with SF-295; 7.1 µM (inactive) in the assay with LOX IMVI; 11.9 µM (inactive) in the assay with UO-31; 2.05 µM (inactive) in the assay with T47D; 17.9 µM (inactive) with A498. Besides, the GI50 with SK-MEL-2 was 13.1 µM (inactive); with HOP-92 it was 2.61 µM (inactive).

For the compound `CCN1CCN(c2nc3ccccc3c3c2CCOc2ccccc2-3)CC1`, the GI50 was > 100 µM (inactive) in the assay on BT-549; 17.7 µM (inactive) in the assay with UACC-62; 22.3 µM (inactive) with 786-0; > 47.1 µM (inactive) with NCI-H226; 21.3 µM (inactive) in the assay on CCRF-CEM; 1.05 µM (active) in the assay on HL-60. For the same compound, the GI50 in the assay on SF-268 was 39.1 µM (inactive); in the assay with SK-MEL-5, 15 µM (inactive); in the assay with IGROV-1, 22.2 µM (inactive); in the assay on SW-620 it was 24.9 µM (inactive); in the assay with SNB-75 it was > 40.6 µM (inactive); in the assay on K562 it was 18.1 µM (inactive). In addition, the GI50 is 17.4 µM (inactive) with COLO 205; 27.4 µM (inactive) in the assay on SF-295; 16.5 µM (inactive) with LOX IMVI; 24.6 µM (inactive) in the assay on UO-31; 35.5 µM (inactive) in the assay with T47D; > 39.3 µM (inactive) in the assay on A498. The figures for the GI50 in the assay on SK-MEL-2 and with HOP-92 were 27.4 µM (inactive) and 28.8 µM (inactive), respectively.

On to `CC(C)(C)c1cc(C=C(C#N)C#N)cc(C(C)(C)C)c1O` [TYRPHOSTIN A9], for which the concentration for 50% growth inhibition (GI50) in the assay on BT-549 is 0.316 µM (active); with UACC-62 it was 0.328 µM (active); with 786-0, 0.652 µM (active); in the assay with NCI-H226, 1.34 µM (inactive); with CCRF-CEM it was 0.33 µM (active); in the assay with HL-60, 0.329 µM (active). Besides, the GI50 with SF-268 is 0.344 µM (active); with SK-MEL-5, 0.376 µM (active); with IGROV-1, 0.682 µM (active); in the assay on SW-620, 0.546 µM (active); with SNB-75 it was 0.857 µM (active); in the assay with K562, 0.305 µM (active). For the same compound, the GI50 was 0.455 µM (active) in the assay on SF-295; 0.641 µM (active) with LOX IMVI; 0.315 µM (active) with UO-31; 0.135 µM (active) with T47D; 0.277 µM (active) in the assay on A498; 0.365 µM (active) in the assay on SK-MEL-2. Besides, the GI50 in the assay on HOP-92 is 0.0527 µM (active).

Broadly, the GI50 is the concentration at which growth is held to half of that of the control.

Source of the values: ChEMBL document CHEMBL1201862, “PubChem BioAssay data set” (2004).
